Results as given in patent US11261174B2, “Pyrazole O-linked carbamoyl cyclohexyl acids as LPA antagonists” (BRISTOL-MYERS SQUIBB COMPANY, priority 2017, dated 2022).

Target: LPA1 (Homo sapiens, UniProt Q92633)
Test: LPA1 functional antagonist assay (LPA-induced calcium flux)
Assay type: cell-based
Parameters: expressed in transfected cells; host or cells: Chinese hamster ovary (CHO) cells
Details: CHO cells overexpressing human LPA1; calcium flux induced by 10 nM LPA; read-out: hLPA1 IC50
Description: The effectiveness of compounds of the present invention as LPA1 inhibitors can be determined in an LPA1 functional antagonist assay as follows:
Chinese hamster ovary cells overexpressing human LPA1 were plated overnight (15,000 cells/well) in poly-D-lysine coated 384-well microplates (Greiner bio-one, Cat #781946) in DMEM/F12 medium (Gibco, Cat #11039). Following overnight culture, cells were loaded with calcium indicator dye (AAT Bioquest Inc, Cat #34601) for 30 minutes at 37° C. The cells were then equilibrated to room temperature for 30 minutes before the assay. Test compounds solubilized in DMSO were transferred to 384 well non-binding surface plates (Corning, Cat #3575) using the Labcyte Echo acoustic dispense and diluted with assay buffer [1×HBSS with calcium/magnesium (Gibco Cat #14025-092), 20 mM HEPES (Gibco Cat #15630-080) and 0.1% fatty acid free BSA (Sigma Cat # A9205)] to a final concentration of 0.5% DMSO. Diluted compounds were added to the cells by FDSS6000 (Hamamatsu) at final concentrations ranging from 0.08 nM to 5 μM. and were then incubated for 20 min at room temperature at which time LPA (Avanti Polar Lipids Cat #857130C) was added at final concentrations of 10 nM to stimulate the cells. […] IC50 values were determined by fitting data to a 4-parameter logistic equation (GraphPad Prism, San Diego Calif.).

Sequence of LPA1 (Q92633 whole entry): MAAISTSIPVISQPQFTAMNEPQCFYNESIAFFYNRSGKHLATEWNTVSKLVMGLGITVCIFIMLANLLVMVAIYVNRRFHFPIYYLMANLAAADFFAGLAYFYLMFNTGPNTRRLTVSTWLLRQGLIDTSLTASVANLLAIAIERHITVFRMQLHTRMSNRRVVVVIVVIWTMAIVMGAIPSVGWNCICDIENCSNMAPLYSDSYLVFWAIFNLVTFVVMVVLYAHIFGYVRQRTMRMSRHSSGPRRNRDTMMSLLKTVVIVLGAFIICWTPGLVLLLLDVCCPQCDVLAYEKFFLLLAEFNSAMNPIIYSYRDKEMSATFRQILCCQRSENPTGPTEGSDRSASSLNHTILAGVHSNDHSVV

In order of rising IC50:
1. Cc1nc(-c2cnn(C)c2COC(=O)N(C)CCC(C)C)ccc1O[C@H]1CCC[C@H](C(=O)O)C1 [Example 24]  5 nM
2. CC(C)CCN(C)C(=O)OCc1c(-c2ccc(O[C@H]3CCC[C@H](C(=O)O)C3)cc2)cnn1C [Example 38]  6 nM
3. Cc1cc(-c2cnn(C)c2COC(=O)N(C)C2CCCC2)ccc1O[C@H]1CCC[C@H](C(=O)O)C1 [Example 48]  8 nM
4. Cc1nc(-c2cnn(C)c2COC(=O)N(C)Cc2cccc(F)c2)ccc1O[C@H]1CCC[C@H](C(=O)O)C1 [Example 16]  8 nM
5. CCCCN(C)C(=O)OCc1c(-c2ccc(O[C@H]3CCC[C@H](C(=O)O)C3)cn2)cnn1C [Example 35]  9 nM
6. Cc1nc(-c2cnn(C)c2COC(=O)N(C)CCC2CC2)ccc1O[C@H]1CCC[C@H](C(=O)O)C1 [Example 19]  9 nM
7. Cc1nc(-c2cnn(C)c2COC(=O)N(C)CC2CCC2)ccc1O[C@H]1CCC[C@H](C(=O)O)C1 [Example 21]  10 nM
8. Cc1nc(-c2cnn(C)c2COC(=O)N(C)Cc2ccccc2)ccc1O[C@H]1CCC[C@H](C(=O)O)C1 [Example 15]  10 nM
9. CCCCN(C)C(=O)OCc1c(-c2ccc(O[C@H]3CCC[C@H](C(=O)O)C3)c(C)c2)cnn1C [Example 60]  11 nM
10. CCc1nc(-c2cnn(C)c2COC(=O)N(C)CC2CCC2)ncc1O[C@H]1CCC[C@H](C(=O)O)C1 [Example 84]  13 nM
11. CCCCN(C)C(=O)OCc1c(-c2ccc(O[C@H]3CCC[C@H](C(=O)O)C3)c(C)n2)cnn1C [Example 20]  16 nM
12. CN(C(=O)OCc1c(-c2cnc(O[C@H]3CCC[C@H](C(=O)O)C3)cn2)cnn1C)C1CCCC1 [Example 56]  18 nM
13. Cc1cc(-c2cnn(C)c2COC(=O)N(C)C2CCC2)ccc1O[C@H]1CCC[C@H](C(=O)O)C1 [Example 45]  19 nM
14. CC(C1CCC1)N(C)C(=O)OCc1c(-c2ccc(O[C@H]3CCC[C@H](C(=O)O)C3)cc2)cnn1C (stereo partly drawn) [Example 55]  22 nM
15. CC(C1CC1)N(C)C(=O)OCc1c(-c2ccc(O[C@H]3CCC[C@H](C(=O)O)C3)cc2)cnn1C (stereo partly drawn) [Example 89]  23 nM
16. CCCCN(C)C(=O)OCc1c(-c2ccc(O[C@H]3CCC[C@H](C(=O)O)C3)cc2)cnn1C [Example 64]  23 nM
17. CC(C)CCN(C)C(=O)OCc1c(-c2ccc(O[C@H]3CCC[C@H](C(=O)O)C3)cn2)cnn1C [Example 33]  23 nM
18. Cc1nc(-c2cnn(C)c2COC(=O)N(C)Cc2ccccc2)ccc1O[C@@H]1CCC[C@@H](C(=O)O)C1 (racemic) [Example 27]  24 nM
19. Cc1cc(-c2cnn(C)c2COC(=O)N(C)C(C)C2CCC2)ccc1O[C@H]1CCC[C@H](C(=O)O)C1 (stereo partly drawn) [Example 46]  27 nM
20. Cc1cc(-c2cnn(C)c2COC(=O)N(C)C(C)C2CC2)ccc1O[C@H]1CCC[C@H](C(=O)O)C1 (stereo partly drawn) [Example 47]  27 nM
21. Cc1nc(-c2cnn(C)c2COC(=O)N(C)C(C2CC2)C2CC2)ccc1O[C@H]1CCC[C@H](C(=O)O)C1 [Example 23]  28 nM
22. CCC(CC)N(C)C(=O)OCc1c(-c2ccc(O[C@H]3CCC[C@H](C(=O)O)C3)cn2)cnn1C [Example 26]  30 nM
23. Cc1nc(-c2cnn(C)c2COC(=O)N(C)C2CCCC2)ccc1O[C@H]1CCC[C@H](C(=O)O)C1 [Example 5]  30 nM
24. CN(C(=O)OCc1c(-c2ccc(O[C@H]3CCC[C@H](C(=O)O)C3)cn2)cnn1C)C1CCCC1 [Example 62]  31 nM
25. CC(C)CCN(C)C(=O)OCc1c(-c2ccc(O[C@@H]3CCC[C@@H](C(=O)O)C3)cn2)cnn1C (racemic) [Example 34]  33 nM
26. CCCCN(C)C(=O)OCc1c(-c2ncc(O[C@H]3CCC[C@H](C(=O)O)C3)c(CC)n2)cnn1C [Example 87]  33 nM
27. Cc1nc(-c2cnn(C)c2COC(=O)N(C)C2CCCC2)cnc1O[C@H]1CCC[C@H](C(=O)O)C1 [Example 9]  34 nM
28. Cc1nc(-c2cnn(C)c2COC(=O)N(C)Cc2ccccc2)cnc1O[C@H]1CCC[C@H](C(=O)O)C1 [Example 8]  34 nM
29. CCCCN(C)C(=O)OCc1c(-c2cnc(O[C@H]3CCC[C@H](C(=O)O)C3)c(C)n2)cnn1C (racemic) [Example 7]  40 nM
30. Cc1nc(-c2cnn(C)c2COC(=O)N(C)C2(C3CC3)CC2)ccc1O[C@H]1CCC[C@H](C(=O)O)C1 [Example 17]  43 nM
31. Cc1nc(-c2cnn(C)c2COC(=O)N(C)C[C@H]2C[C@@H]2C)ncc1O[C@H]1CCC[C@H](C(=O)O)C1 [Example 92]  45 nM
32. CN(CCC1CC1)C(=O)OCc1c(-c2ccc(O[C@H]3CCC[C@H](C(=O)O)C3)cc2)cnn1C [Example 63]  46 nM
33. CN(CC1CCC1)C(=O)OCc1c(-c2ccc(O[C@H]3CCC[C@H](C(=O)O)C3)cn2)cnn1C [Example 3]  48 nM
34. Cc1nc(-c2cnn(C)c2COC(=O)N(C)[C@H](C)C2CC2)ccc1O[C@H]1CCC[C@H](C(=O)O)C1 [Example 65]  48 nM
35. CCCC(C)(C)N(C)C(=O)OCc1c(-c2ccc(O[C@@H]3CCC[C@@H](C(=O)O)C3)cn2)cnn1C (racemic) [Example 31]  51 nM
36. CN(CCC1CC1)C(=O)OCc1c(-c2ccc(O[C@@H]3CCC[C@@H](C(=O)O)C3)cn2)cnn1C (racemic) [Example 32]  54 nM
37. CCCC1(N(C)C(=O)OCc2c(-c3ccc(O[C@H]4CCC[C@H](C(=O)O)C4)c(C)n3)cnn2C)CC1 [Example 18]  55 nM
38. CCCCN(C)C(=O)OCc1c(-c2ncc(O[C@H]3CCC[C@H](C(=O)O)C3)c(C)n2)cnn1C [Example 67]  59 nM
39. CCc1nc(-c2cnn(C)c2COC(=O)N(C)C2CCCC2)ncc1O[C@H]1CCC[C@H](C(=O)O)C1 [Example 83]  60 nM
40. Cc1nc(-c2cnn(C)c2COC(=O)N(C)Cc2ccccc2)ncc1O[C@H]1CCC[C@H](C(=O)O)C1 [Example 72]  60 nM
41. Cc1nc(-c2cnn(C)c2COC(=O)N(C)CCCCF)ncc1O[C@H]1CCC[C@H](C(=O)O)C1 [Example 74]  77 nM
42. CCc1nc(-c2cnn(C)c2COC(=O)N(C)Cc2ccccc2)ncc1O[C@H]1CCC[C@H](C(=O)O)C1 [Example 82]  79 nM
43. CCCCCN(C)C(=O)OCc1c(-c2ncc(O[C@H]3CCC[C@H](C(=O)O)C3)c(C)n2)cnn1C [Example 75]  82 nM
44. CCC(C)N(C)C(=O)OCc1c(-c2ccc(O[C@H]3CCC[C@H](C(=O)O)C3)cc2)cnn1C (stereo partly drawn) [Example 53]  86 nM
45. CCCC(C)N(C)C(=O)OCc1c(-c2ccc(O[C@H]3CCC[C@H](C(=O)O)C3)cc2)cnn1C (stereo partly drawn) [Example 54]  87 nM
46. Cc1nc(-c2cnn(C)c2COC(=O)N(C)C2CCCC2)ncc1O[C@H]1CCC[C@H](C(=O)O)C1 [Example 71]  115 nM
47. Cc1nc(-c2cnn(C)c2COC(=O)N(C)C2CCC2)ncc1O[C@H]1CCC[C@H](C(=O)O)C1 [Example 70]  120 nM
48. CC(C1CC1)N(C)C(=O)OCc1c(-c2ccc(O[C@H]3CCC[C@H](C(=O)O)C3)cn2)cnn1C (stereo partly drawn) [Example 61]  134 nM
49. CC(C1CCC1)N(C)C(=O)OCc1c(-c2ccc(O[C@H]3CCCC(C(=O)O)C3)cn2)cnn1C (stereo partly drawn) [Example 2]  136 nM
50. CCCC(C)(C)N(C)C(=O)OCc1c(-c2ccc(O[C@@H]3CCC[C@@H](C(=O)O)C3)c(C)n2)cnn1C (racemic) [Example 28]  140 nM
51. CCc1nc(-c2cnn(C)c2COC(=O)N(C)CC2CC2)ncc1O[C@H]1CCC[C@H](C(=O)O)C1 [Example 85]  162 nM
52. Cc1nc(-c2cnn(C)c2COC(=O)N(C)CC(C)C)ncc1O[C@H]1CCC[C@H](C(=O)O)C1 [Example 68]  214 nM
53. Cc1nc(-c2cnn(C)c2COC(=O)N(C)CC2CCCC2)ccc1O[C@H]1CCC[C@H](C(=O)O)C1 [Example 13]  244 nM
54. CC(C)CN(C)C(=O)OCc1c(-c2ccc(O[C@H]3CCC[C@H](C(=O)O)C3)cc2)cnn1C [Example 49]  286 nM
55. Cc1nc(-c2cnn(C)c2COC(=O)N(C)CC2CC2)ncc1O[C@H]1CCC[C@H](C(=O)O)C1 [Example 69]  293 nM
56. Cc1nc(-c2cnn(C)c2COC(=O)N2CC(C)(C)C2)ccc1O[C@H]1CCC[C@H](C(=O)O)C1 [Example 90]  309 nM
57. Cc1nc(-c2cnn(C)c2COC(=O)N(C)CCC2CC2(F)F)ncc1O[C@H]1CCC[C@H](C(=O)O)C1 (stereo partly drawn) [Example 78]  317 nM
58. CN(Cc1ccccc1)C(=O)OCc1c(-c2ccc(O[C@@H]3CCC[C@@H](C(=O)O)C3)cc2)cnn1C [Example 36]  376 nM
59. CN(CC1CC1)C(=O)OCc1c(-c2ccc(O[C@H]3CCC[C@H](C(=O)O)C3)cc2)cnn1C [Example 51]  399 nM
60. Cc1nc(-c2cnn(C)c2COC(=O)N(C)Cc2cccc(Cl)c2)ccc1O[C@H]1CCC[C@H](C(=O)O)C1 [Example 14]  1120 nM
61. CCCN(C)C(=O)OCc1c(-c2ncc(O[C@H]3CCC[C@H](C(=O)O)C3)c(CC)n2)cnn1C [Example 88]  1260 nM
62. CN(CC1CC1)C(=O)OCc1c(-c2ccc(O[C@@H]3CCC[C@@H](C(=O)O)C3)cc2)cnn1C (racemic) [Example 41]  1760 nM
63. CC(C)CCN(C)C(=O)OCc1c(-c2ccc(O[C@@H]3CCC[C@@H](C(=O)O)C3)cc2)cnn1C [Example 37]  2040 nM
